{"source": "the kinase profiling compilation of Christmann-Franck et al. (2016)", "key": {"[1]": {"target": "AAK1 (human) (UniProt Q2M2I8)", "assay": "KINOMEscan competition binding", "settings": "compound 1.0 µM"}, "[2]": {"tested_on": "ABL1 (human), P00519 [M351T]", "assay": "KINOMEscan competition binding", "settings": "compound 1.0 µM"}, "[3]": {"tested_on": "ABL1 (human), P00519 [Q252H]", "assay": "KINOMEscan competition binding", "settings": "compound 1.0 µM"}, "[4]": {"tested_on": "ABL1 (human), P00519 [T315I]", "assay": "KINOMEscan competition binding", "settings": "compound 1.0 µM"}, "[5]": {"target": "ADCK4 (human) (UniProt Q96D53)", "assay": "KINOMEscan competition binding", "settings": "compound 1.0 µM"}, "[6]": {"target": "BMX (human) (UniProt P51813)", "sequence (P51813 whole entry, looked up)": "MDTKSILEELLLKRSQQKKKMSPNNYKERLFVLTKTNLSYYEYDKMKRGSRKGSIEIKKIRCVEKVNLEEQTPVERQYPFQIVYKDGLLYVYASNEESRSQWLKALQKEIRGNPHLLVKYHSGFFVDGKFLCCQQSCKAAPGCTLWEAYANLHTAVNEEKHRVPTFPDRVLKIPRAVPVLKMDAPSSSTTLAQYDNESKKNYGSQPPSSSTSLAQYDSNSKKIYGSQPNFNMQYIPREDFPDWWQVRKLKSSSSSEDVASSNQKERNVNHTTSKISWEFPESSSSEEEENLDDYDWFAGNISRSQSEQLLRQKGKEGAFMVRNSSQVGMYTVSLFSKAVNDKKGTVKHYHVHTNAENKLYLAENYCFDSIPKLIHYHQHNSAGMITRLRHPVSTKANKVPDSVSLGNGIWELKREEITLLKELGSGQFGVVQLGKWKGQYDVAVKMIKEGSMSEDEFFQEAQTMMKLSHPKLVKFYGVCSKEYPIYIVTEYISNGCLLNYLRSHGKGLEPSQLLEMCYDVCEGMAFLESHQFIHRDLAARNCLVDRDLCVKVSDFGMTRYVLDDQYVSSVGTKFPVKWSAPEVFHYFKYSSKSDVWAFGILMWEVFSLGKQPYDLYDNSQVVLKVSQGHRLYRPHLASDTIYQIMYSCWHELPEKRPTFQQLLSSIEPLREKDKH", "assay": "KINOMEscan competition binding", "settings": "compound 1.0 µM"}, "[7]": {"target": "CAMK2D (human) (UniProt Q13557)", "assay": "KINOMEscan competition binding", "settings": "compound 1.0 µM"}, "[8]": {"target": "CSNK1A1L (human) (UniProt Q8N752)", "sequence (Q8N752 whole entry, looked up)": "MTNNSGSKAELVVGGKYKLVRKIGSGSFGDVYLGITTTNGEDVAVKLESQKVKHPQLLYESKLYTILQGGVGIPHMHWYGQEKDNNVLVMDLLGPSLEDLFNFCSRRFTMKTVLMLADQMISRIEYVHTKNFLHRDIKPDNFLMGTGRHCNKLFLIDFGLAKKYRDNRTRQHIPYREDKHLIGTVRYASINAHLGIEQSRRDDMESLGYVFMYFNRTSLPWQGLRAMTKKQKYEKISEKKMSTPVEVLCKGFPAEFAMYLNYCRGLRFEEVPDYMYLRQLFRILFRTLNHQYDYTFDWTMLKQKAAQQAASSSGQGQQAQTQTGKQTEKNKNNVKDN", "assay": "KINOMEscan competition binding", "settings": "compound 1.0 µM"}, "[9]": {"target": "CSNK1D (human) (UniProt P48730)", "assay": "KINOMEscan competition binding", "settings": "compound 1.0 µM"}, "[10]": {"target": "CSNK1E (human) (UniProt P49674)", "assay": "KINOMEscan competition binding", "settings": "compound 1.0 µM"}, "[11]": {"target": "DCLK2 (human) (UniProt Q8N568)", "assay": "KINOMEscan competition binding", "settings": "compound 1.0 µM"}, "[12]": {"target": "ERBB4 (human) (UniProt Q15303)", "assay": "KINOMEscan competition binding", "settings": "compound 1.0 µM"}, "[13]": {"target": "FGFR3 (human) (UniProt P22607)", "sequence (P22607 whole entry, looked up)": "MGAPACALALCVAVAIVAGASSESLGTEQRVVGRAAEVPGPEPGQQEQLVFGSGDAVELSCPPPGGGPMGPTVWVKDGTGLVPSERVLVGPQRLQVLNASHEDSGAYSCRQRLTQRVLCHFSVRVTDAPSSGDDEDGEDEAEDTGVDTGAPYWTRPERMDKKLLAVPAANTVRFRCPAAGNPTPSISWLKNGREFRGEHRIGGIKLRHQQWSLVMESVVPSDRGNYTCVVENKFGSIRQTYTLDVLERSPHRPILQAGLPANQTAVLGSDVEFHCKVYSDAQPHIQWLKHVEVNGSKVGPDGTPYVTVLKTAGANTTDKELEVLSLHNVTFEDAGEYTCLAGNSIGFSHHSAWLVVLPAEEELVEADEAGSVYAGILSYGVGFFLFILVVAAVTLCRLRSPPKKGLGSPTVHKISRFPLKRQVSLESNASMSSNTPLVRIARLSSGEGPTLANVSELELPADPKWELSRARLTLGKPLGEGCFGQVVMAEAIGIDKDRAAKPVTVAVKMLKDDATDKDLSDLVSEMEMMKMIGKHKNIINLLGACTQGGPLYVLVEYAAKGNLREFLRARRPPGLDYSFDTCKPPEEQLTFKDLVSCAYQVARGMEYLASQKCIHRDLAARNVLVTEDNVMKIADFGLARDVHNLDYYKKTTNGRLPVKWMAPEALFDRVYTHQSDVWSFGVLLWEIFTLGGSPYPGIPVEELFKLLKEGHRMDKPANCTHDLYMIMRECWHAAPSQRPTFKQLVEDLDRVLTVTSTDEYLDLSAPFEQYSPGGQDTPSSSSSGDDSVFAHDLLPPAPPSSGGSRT", "assay": "KINOMEscan competition binding", "settings": "compound 1.0 µM"}, "[14]": {"tested_on": "FGFR3 (human), P22607 [G697C]", "assay": "KINOMEscan competition binding", "settings": "compound 1.0 µM"}, "[15]": {"target": "GSK3B (human) (UniProt P49841)", "assay": "KINOMEscan competition binding", "settings": "compound 1.0 µM"}, "[16]": {"tested_on": "KIT (human), P10721 [L576P]", "assay": "KINOMEscan competition binding", "settings": "compound 1.0 µM"}, "[17]": {"target": "LIMK1 (human) (UniProt P53667)", "assay": "KINOMEscan competition binding", "settings": "compound 1.0 µM"}, "[18]": {"target": "MAP2K4 (human) (UniProt P45985)", "assay": "KINOMEscan competition binding", "settings": "compound 1.0 µM"}, "[19]": {"target": "MAP3K3 (human) (UniProt Q99759)", "assay": "KINOMEscan competition binding", "settings": "compound 1.0 µM"}, "[20]": {"target": "MAPKAPK2 (human) (UniProt P49137)", "assay": "KINOMEscan competition binding", "settings": "compound 1.0 µM"}, "[21]": {"target": "MAPKAPK5 (human) (UniProt Q8IW41)", "assay": "KINOMEscan competition binding", "settings": "compound 1.0 µM"}, "[22]": {"target": "MST4 (human) (UniProt Q9P289)", "assay": "KINOMEscan competition binding", "settings": "compound 1.0 µM"}, "[23]": {"target": "MYLK2 (human) (UniProt Q9H1R3)", "sequence (Q9H1R3 whole entry, looked up)": "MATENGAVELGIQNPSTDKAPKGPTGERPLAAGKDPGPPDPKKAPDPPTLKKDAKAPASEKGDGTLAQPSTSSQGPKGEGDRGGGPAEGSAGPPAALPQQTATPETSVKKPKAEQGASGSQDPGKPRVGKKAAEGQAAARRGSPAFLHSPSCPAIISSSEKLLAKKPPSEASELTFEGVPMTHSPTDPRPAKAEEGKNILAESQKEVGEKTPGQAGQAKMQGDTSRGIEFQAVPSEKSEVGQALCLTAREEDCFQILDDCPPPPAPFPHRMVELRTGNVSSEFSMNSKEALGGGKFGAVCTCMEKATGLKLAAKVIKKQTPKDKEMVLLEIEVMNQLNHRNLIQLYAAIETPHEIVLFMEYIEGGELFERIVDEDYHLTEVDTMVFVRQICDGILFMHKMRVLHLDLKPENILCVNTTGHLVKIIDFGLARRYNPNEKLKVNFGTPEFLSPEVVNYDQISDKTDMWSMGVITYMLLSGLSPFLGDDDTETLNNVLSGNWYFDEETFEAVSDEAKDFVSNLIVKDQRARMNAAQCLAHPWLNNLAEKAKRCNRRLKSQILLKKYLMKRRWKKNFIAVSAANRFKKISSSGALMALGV", "assay": "KINOMEscan competition binding", "settings": "compound 1.0 µM"}, "[24]": {"target": "PHKG2 (human) (UniProt P15735)", "assay": "KINOMEscan competition binding", "settings": "compound 1.0 µM"}, "[25]": {"target": "PRKACB (human) (UniProt P22694)", "assay": "KINOMEscan competition binding", "settings": "compound 1.0 µM"}, "[26]": {"target": "PRKCD (human) (UniProt Q05655)", "assay": "KINOMEscan competition binding", "settings": "compound 1.0 µM"}, "[27]": {"target": "PRKD1 (human) (UniProt Q15139)", "assay": "KINOMEscan competition binding", "settings": "compound 1.0 µM"}, "[28]": {"target": "RIPK4 (human) (UniProt P57078)", "assay": "KINOMEscan competition binding", "settings": "compound 1.0 µM"}, "[29]": {"target": "ROCK2 (human) (UniProt O75116)", "sequence (O75116 whole entry, looked up)": "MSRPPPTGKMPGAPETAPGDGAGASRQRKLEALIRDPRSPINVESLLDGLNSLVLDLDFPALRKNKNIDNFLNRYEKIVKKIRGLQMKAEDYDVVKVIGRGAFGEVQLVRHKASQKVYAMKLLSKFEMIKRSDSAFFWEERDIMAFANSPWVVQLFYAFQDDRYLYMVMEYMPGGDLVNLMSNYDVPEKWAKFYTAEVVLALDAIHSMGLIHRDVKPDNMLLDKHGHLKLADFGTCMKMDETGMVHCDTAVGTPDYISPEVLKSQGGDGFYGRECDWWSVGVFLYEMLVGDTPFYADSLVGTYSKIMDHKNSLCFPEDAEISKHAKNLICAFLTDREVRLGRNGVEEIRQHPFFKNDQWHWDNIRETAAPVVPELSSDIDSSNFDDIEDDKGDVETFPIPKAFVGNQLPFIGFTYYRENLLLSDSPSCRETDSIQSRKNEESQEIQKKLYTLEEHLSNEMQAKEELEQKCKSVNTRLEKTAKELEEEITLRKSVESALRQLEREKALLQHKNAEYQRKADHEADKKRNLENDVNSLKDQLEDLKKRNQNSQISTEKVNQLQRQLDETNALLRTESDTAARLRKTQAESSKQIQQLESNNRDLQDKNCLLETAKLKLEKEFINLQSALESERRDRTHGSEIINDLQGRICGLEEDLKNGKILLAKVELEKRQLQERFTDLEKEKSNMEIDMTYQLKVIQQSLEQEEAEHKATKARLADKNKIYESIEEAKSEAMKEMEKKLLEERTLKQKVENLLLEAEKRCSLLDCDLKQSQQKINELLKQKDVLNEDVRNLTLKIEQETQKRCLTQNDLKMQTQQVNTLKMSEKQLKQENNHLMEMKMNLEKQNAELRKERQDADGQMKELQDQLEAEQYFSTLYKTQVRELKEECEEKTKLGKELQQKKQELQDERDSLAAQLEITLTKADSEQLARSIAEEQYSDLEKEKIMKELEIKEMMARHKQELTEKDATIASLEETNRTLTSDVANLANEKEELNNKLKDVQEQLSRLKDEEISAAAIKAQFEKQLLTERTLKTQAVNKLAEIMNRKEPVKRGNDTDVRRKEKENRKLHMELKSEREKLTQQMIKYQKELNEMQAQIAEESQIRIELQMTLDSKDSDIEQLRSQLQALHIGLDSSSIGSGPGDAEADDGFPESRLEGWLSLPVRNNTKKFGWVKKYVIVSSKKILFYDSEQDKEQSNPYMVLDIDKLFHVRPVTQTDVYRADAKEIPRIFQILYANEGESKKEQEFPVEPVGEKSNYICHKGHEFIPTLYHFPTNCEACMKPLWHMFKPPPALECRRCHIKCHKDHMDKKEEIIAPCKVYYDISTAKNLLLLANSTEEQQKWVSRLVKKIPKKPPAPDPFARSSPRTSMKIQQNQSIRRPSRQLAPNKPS", "assay": "KINOMEscan competition binding", "settings": "compound 1.0 µM"}, "[30]": {"target": "STK16 (human) (UniProt O75716)", "assay": "KINOMEscan competition binding", "settings": "compound 1.0 µM"}, "[31]": {"target": "TESK1 (human) (UniProt Q15569)", "assay": "KINOMEscan competition binding", "settings": "compound 1.0 µM"}, "[32]": {"target": "BMX (human) (UniProt P51813)", "assay": "SelectScreen, TR FRET", "settings": "compound 5.0 µM"}, "[33]": {"target": "FGFR3 (human) (UniProt P22607)", "assay": "SelectScreen, TR FRET", "settings": "compound 5.0 µM"}, "[34]": {"target": "FRK (human) (UniProt P42685)", "sequence (P42685 whole entry, looked up)": "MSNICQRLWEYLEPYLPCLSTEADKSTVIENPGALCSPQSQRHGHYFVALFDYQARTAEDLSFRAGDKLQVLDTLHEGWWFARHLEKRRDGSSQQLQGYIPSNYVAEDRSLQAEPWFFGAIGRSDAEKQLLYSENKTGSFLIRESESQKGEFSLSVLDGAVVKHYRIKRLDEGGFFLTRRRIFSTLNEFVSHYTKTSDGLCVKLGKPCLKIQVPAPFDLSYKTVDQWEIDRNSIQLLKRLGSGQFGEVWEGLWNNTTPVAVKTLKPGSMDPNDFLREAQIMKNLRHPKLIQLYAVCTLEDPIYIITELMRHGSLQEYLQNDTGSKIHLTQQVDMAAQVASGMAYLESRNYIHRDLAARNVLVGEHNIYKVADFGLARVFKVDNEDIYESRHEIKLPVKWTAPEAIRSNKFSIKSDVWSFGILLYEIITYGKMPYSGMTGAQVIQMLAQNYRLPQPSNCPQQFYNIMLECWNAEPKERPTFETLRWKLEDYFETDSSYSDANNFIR", "assay": "SelectScreen, TR FRET", "settings": "compound 5.0 µM"}, "[35]": {"target": "GRK7 (human) (UniProt Q8WTQ7)", "assay": "SelectScreen, TR FRET", "settings": "compound 5.0 µM"}, "[36]": {"tested_on": "MET (human), P08581 [M1250T]", "assay": "SelectScreen, TR FRET", "settings": "compound 5.0 µM"}, "[37]": {"tested_on": "PDGFRA (human), P16234 [D842V]", "assay": "SelectScreen, TR FRET", "settings": "compound 5.0 µM"}, "[38]": {"target": "PDGFRB (human) (UniProt P09619)", "assay": "SelectScreen, TR FRET", "settings": "compound 5.0 µM"}, "[39]": {"target": "PLK2 (human) (UniProt Q9NYY3)", "assay": "SelectScreen, TR FRET", "settings": "compound 5.0 µM"}, "[40]": {"target": "PRKG2 (human) (UniProt Q13237)", "sequence (Q13237 whole entry, looked up)": "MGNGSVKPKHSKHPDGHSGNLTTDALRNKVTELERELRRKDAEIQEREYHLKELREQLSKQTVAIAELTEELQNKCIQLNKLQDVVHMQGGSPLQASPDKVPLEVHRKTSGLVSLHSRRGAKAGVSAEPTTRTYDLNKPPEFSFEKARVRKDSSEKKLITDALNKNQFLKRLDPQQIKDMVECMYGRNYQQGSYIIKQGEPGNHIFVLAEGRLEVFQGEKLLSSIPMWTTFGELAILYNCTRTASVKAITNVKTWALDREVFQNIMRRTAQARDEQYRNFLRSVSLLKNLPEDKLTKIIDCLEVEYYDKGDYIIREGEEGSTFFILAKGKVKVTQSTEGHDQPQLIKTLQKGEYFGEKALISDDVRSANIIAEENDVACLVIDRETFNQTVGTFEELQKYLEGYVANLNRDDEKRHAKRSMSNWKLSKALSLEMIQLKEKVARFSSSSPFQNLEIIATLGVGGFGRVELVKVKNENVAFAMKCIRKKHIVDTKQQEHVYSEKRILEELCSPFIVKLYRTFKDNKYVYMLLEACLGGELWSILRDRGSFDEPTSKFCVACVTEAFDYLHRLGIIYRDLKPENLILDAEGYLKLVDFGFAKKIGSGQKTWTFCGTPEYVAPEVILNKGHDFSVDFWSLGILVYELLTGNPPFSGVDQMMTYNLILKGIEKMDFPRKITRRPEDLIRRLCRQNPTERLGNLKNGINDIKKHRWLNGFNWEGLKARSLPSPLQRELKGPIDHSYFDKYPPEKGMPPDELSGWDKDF", "assay": "SelectScreen, TR FRET", "settings": "compound 5.0 µM"}}, "data": [{"smiles": "Nc1cc(C(F)(F)F)c(-c2cc(N3CCOCC3)nc(N3CCOCC3)n2)cn1", "values": [{"measurement": "inhibition of binding", "setting": "[1]", "result": 0, "unit": "%"}, {"measurement": "inhibition of binding", "setting": "[2]", "result": 0, "unit": "%"}, {"measurement": "inhibition of binding", "setting": "[3]", "result": 0, "unit": "%"}, {"measurement": "inhibition of binding", "setting": "[4]", "result": 2, "unit": "%"}, {"measurement": "inhibition of binding", "setting": "[5]", "result": 0, "unit": "%"}, {"measurement": "inhibition of binding", "setting": "[6]", "result": 14, "unit": "%"}, {"measurement": "inhibition of binding", "setting": "[7]", "result": 0, "unit": "%"}, {"measurement": "inhibition of binding", "setting": "[8]", "result": 0, "unit": "%"}, {"measurement": "inhibition of binding", "setting": "[9]", "result": 27, "unit": "%"}, {"measurement": "inhibition of binding", "setting": "[10]", "result": 7, "unit": "%"}, {"measurement": "inhibition of binding", "setting": "[11]", "result": 30, "unit": "%"}, {"measurement": "inhibition of binding", "setting": "[12]", "result": 7, "unit": "%"}, {"measurement": "inhibition of binding", "setting": "[13]", "result": 7, "unit": "%"}, {"measurement": "inhibition of binding", "setting": "[14]", "result": 0, "unit": "%"}, {"measurement": "inhibition of binding", "setting": "[15]", "result": 0, "unit": "%"}, {"measurement": "inhibition of binding", "setting": "[16]", "result": 0, "unit": "%"}, {"measurement": "inhibition of binding", "setting": "[17]", "result": 0, "unit": "%"}, {"measurement": "inhibition of binding", "setting": "[18]", "result": 15, "unit": "%"}, {"measurement": "inhibition of binding", "setting": "[19]", "result": 0, "unit": "%"}, {"measurement": "inhibition of binding", "setting": "[20]", "result": 0, "unit": "%"}, {"measurement": "inhibition of binding", "setting": "[21]", "result": 0, "unit": "%"}, {"measurement": "inhibition of binding", "setting": "[22]", "result": 0, "unit": "%"}, {"measurement": "inhibition of binding", "setting": "[23]", "result": 5, "unit": "%"}, {"measurement": "inhibition of binding", "setting": "[24]", "result": 11, "unit": "%"}, {"measurement": "inhibition of binding", "setting": "[25]", "result": 4, "unit": "%"}, {"measurement": "inhibition of binding", "setting": "[26]", "result": 4, "unit": "%"}, {"measurement": "inhibition of binding", "setting": "[27]", "result": 36, "unit": "%"}, {"measurement": "inhibition of binding", "setting": "[28]", "result": 0, "unit": "%"}, {"measurement": "inhibition of binding", "setting": "[29]", "result": 0, "unit": "%"}, {"measurement": "inhibition of binding", "setting": "[30]", "result": 0, "unit": "%"}, {"measurement": "inhibition of binding", "setting": "[31]", "result": 0, "unit": "%"}, {"measurement": "inhibition", "setting": "[32]", "result": 3, "unit": "%"}, {"measurement": "inhibition", "setting": "[33]", "result": 2, "unit": "%"}, {"measurement": "inhibition", "setting": "[34]", "result": 2, "unit": "%"}, {"measurement": "inhibition", "setting": "[35]", "result": 0, "unit": "%"}, {"measurement": "inhibition", "setting": "[36]", "result": 1, "unit": "%"}, {"measurement": "inhibition", "setting": "[37]", "result": 1, "unit": "%"}, {"measurement": "inhibition", "setting": "[38]", "result": 5, "unit": "%"}, {"measurement": "inhibition", "setting": "[39]", "result": -2, "unit": "%"}, {"measurement": "inhibition", "setting": "[40]", "result": 10, "unit": "%"}]}]}
